Reference: patent publication US20130165489A1, “Small Molecule Modulators of HIV-1 Capsid Stability and Methods Thereof” (The Trustees of the University of Pennsylvania, priority 2010, published 2013)

Key:
[1] = system: HIV-1 92UG024 (subtype D clinical isolate); test: Anti-HIV efficacy in human PBMCs, isolate 92UG024; assay type: cell-based
Method: (§1) HIV human peripheral blood mononuclear cell (PBMC) assays were performed as described previously (Lanier et al., 2010, Antimicrob. Agents Chemother. 54:2901-09; Ptak et al., 2008, Antimicrob. Agents Chemother. 52:1302-17). Briefly, fresh PBMCs, seronegative for HIV and hepatitis B virus (HBV), were isolated from blood samples of the screened donors (Biological Specialty Corporation, Colmar, Pa.) by using lymphocyte separation medium (LSM; density, 1.078±0.002 g/ml; Cellgro; Mediatech, Inc.) by following the manufacturer's instructions. Cells were stimulated by incubation in 4 μg/mL phytohemagglutinin (PHA; Sigma) for 48 to 72 h. Mitogenic stimulation was maintained by the addition of 20 U/mL recombinant human interleukin-2 (rhIL-2; R&D Systems, Inc.) to the culture medium. PHA-stimulated PBMCs from at least two donors were pooled, diluted in fresh medium, and added to 96-well plates at 5×10^4 cells/well. Cells were infected (final multiplicity of infection [MOI] of ≅0.1) in the presence of 9 different concentrations of test compounds (triplicate wells/concentration) and incubated for 7 days. […] Following removal of supernatant samples, compound cytotoxicity was measured by the addition of 3-(4,5-dimethylthiazol-2-yl)-5-(3-carboxymethoxyphenyl)-2-(4-sulfophenyl)-2H-tetrazolium (MTS; CellTiter 96 reagent; Promega) by following the manufacturer's instructions. […]

[2] = system: HIV-1 G3 (subtype G clinical isolate); test: Anti-HIV efficacy in human PBMCs, isolate G3; assay type: cell-based
Method: as §1

in vitro = assay type: cell-based; conditions: human
Method: HIV human peripheral blood mononuclear cell (PBMC) assays were performed as described previously (Lanier et al., 2010, Antimicrob. Agents Chemother. 54:2901-09; Ptak et al., 2008, Antimicrob. Agents Chemother. 52:1302-17). Briefly, fresh PBMCs, seronegative for HIV and hepatitis B virus (HBV), were isolated from blood samples of the screened donors (Biological Specialty Corporation, Colmar, Pa.) by using lymphocyte separation medium (LSM; density, 1.078±0.002 g/ml; Cellgro; Mediatech, Inc.) by following the manufacturer's instructions. Cells were stimulated by incubation in 4 μg/mL phytohemagglutinin (PHA; Sigma) for 48 to 72 h. Mitogenic stimulation was maintained by the addition of 20 U/mL recombinant human interleukin-2 (rhIL-2; R&D Systems, Inc.) to the culture medium. PHA-stimulated PBMCs from at least two donors were pooled, diluted in fresh medium, and added to 96-well plates at 5×10^4 cells/well. Cells were infected (final multiplicity of infection [MOI] of ≅0.1) in the presence of 9 different concentrations of test compounds (triplicate wells/concentration) and incubated for 7 days. […] Following removal of supernatant samples, compound cytotoxicity was measured by the addition of 3-(4,5-dimethylthiazol-2-yl)-5-(3-carboxymethoxyphenyl)-2-(4-sulfophenyl)-2H-tetrazolium (MTS; CellTiter 96 reagent; Promega) by following the manufacturer's instructions.

HIV-1NL4-3 CA = HIV-1NL4-3 CA (Human immunodeficiency virus type 1 group M subtype B, UniProt P12493); test: Isothermal titration calorimetry; assay type: binding
Method: Isothermal titration calorimetric experiments were performed at 10, 15, and 25° C. using a high-precision ITC200 titration calorimetric system from MicroCal LLC (Northampton, Mass.). All titrations were performed by adding CMPD-E in steps of […]. All solutions contained within the calorimetric cell and injector syringe were prepared in the same buffer, 25 mM Tris-HCl, pH 7.5 with 150 mM NaCl and 3% DMSO. The concentrations of CA and CMPD-E were 35 and 600 μM, respectively. The heat evolved upon injection of CMPD-E was obtained from the integral of the calorimetric signal. The heat associated with the binding reaction was obtained by subtracting the heat of dilution from the heat of reaction. The individual heats were plotted against the molar ratio, and the values for the number of binding sites (n), the enthalpy change (ΔH) and dissociation constant (KD=1/KA) were obtained by nonlinear regression of the data.

[3] = Human immunodeficiency virus 1, PBMC

Compound: O=C(O)c1ccc(-c2nc(-c3ccccc3)c(-c3ccccc3)[nH]2)cc1 [CMPD-E, 4-(4,5-diphenyl-1H-imidazol-2-yl)benzoic acid]
- IC50 [1, 3]: 51.8 µM
- Antiviral index (TC50/IC50) ([1]; PBMC): >1.93
- IC50 [2, 3]: 9.03 µM
- Antiviral index (TC50/IC50) ([2]; PBMC): >11.1
- CC50 at 7 days (in vitro): > 100 µM
- Kd (HIV-1NL4-3 CA): 85 µM
- change in Gibbs energy (HIV-1NL4-3 CA; ITC, 25° C.): -6.6 kcal/mol
- change in enthalpy (ΔH) (HIV-1NL4-3 CA; ITC, 25° C.): -7.3 kcal/mol
- change in entropy (ΔS) (HIV-1NL4-3 CA; ITC, 25° C.): −5.0 cal/(K×mol)
- heat capacity change (HIV-1NL4-3 CA; from temperature dependence of the enthalpy): −220 cal/(K×mol)
